From US20230159509A1 (Amathus Therapeutics, Inc., priority 2020, published 2023)

Columns and labels:
[1] = target: T1, TRAP1 enzyme (Homo sapiens, UniProt Q12931); test: Malachite green phosphate assay of TRAP1 ATPase activity; assay type: biochemical; conditions: for EC50: concentration for half maximal activation, read-out: Malachite Green Fluor DRC: GeoMean EC50; for Emax: maximal percent activation, read-out: Malachite Green Fluor DRC: Mean Emax
T1 construct: 150 nM Trap1 enzyme was incubated with various concentrations of the test compound
T1 sequence (Q12931 60-704): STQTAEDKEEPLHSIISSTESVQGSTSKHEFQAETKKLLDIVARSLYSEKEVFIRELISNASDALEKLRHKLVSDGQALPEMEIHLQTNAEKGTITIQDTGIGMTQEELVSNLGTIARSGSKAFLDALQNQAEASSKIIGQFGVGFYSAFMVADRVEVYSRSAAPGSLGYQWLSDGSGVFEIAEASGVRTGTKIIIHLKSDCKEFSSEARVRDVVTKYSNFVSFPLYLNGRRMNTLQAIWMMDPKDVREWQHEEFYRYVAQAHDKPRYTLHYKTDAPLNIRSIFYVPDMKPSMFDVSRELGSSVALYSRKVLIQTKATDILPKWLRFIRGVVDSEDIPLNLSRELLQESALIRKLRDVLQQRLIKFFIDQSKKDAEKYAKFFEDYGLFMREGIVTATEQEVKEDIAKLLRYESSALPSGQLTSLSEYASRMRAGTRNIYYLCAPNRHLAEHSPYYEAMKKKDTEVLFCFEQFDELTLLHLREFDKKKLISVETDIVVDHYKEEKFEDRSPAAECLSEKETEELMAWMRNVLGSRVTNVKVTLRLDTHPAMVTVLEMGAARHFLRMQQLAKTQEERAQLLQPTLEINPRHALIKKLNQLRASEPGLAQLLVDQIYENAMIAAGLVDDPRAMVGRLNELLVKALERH
Procedure: The Potency of test compounds to modulate the ATPase activity of TRAP1 enzyme was evaluated using malachite green phosphatase assay. The assay is based on quantification of the green complex formed between Malachite Green, molybdate and inorganic phosphate generated in the phosphatase reaction. Assays were performed using a Malachite Green assay kit. All the assays were carried out in a 96-well transparent plate. The buffer used was 50 mM HEPES (pH 7.5), 20 mM KCl, 4 mM MgCl2 and 0.05% BSA. 150 nM Trap1 enzyme was incubated with various concentrations of the test compound (0.78 μM-100 μM) at 37° C. for 30 mins. 20 μM ATP was added to each well (except blank wells) to start the reaction and the plate was then incubated at 37° C. for 180 mins. 10 μl of the reaction volume of each sample was then transferred to a white 384-well proxiplate in quadruplets. 2.5 μl of Malachite Green reagent was added to all the wells and the plate was equilibrated for 15 mins. The reaction was stopped by adding 12% H2SO4 and the plate was read for fluorescence at 620 nm (λex=573 nm). The amount of phosphate released was estimated from a phosphate standard curve generated at the same experimental conditions. Emax (Maximal percent activation) and EC50 (concentration of test compound for half maximal activation) were estimated by fitting the dose response data to a sigmoidal curve fitting equation using Graphpad Prism software V.7.0.

[2] = target: T1, TRAP1 enzyme; test: ADP Glo assay of TRAP1 ATPase activity; assay type: biochemical; conditions: for activation at 50 µM: 1 h, compound concentration 50 μM, read-out: ADP-Glo Percent Activation at 50 μM
Summary of the method: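 Compound (0.79–100 μM) was preincubated 30 min at 37° C with 150 nM TRAP1 in 25 mM Pipes pH 7.5, 40 mM KCl, 0.05 mM MgCl2. Reaction started with 20 μM ATP, 60 min at 37° C. ADP measured by luminescence against a standard curve; activation fitted sigmoidally for EC50 and Emax.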

[3] = test system: tamoxifen-induced polycystic kidney disease model (Ksp-TamCre×PkdlLox); test: Tamoxifen-induced polycystic kidney disease mouse model; assay type: in vivo; conditions: compound 1206 10 mg/kg po QD 14d
Procedure: Compound 1206 (10 mg/kg po, QD dosing for 14d, n=13/group) was assessed in a tamoxifen-induced polycystic kidney disease model (Ksp-TamCre×PkdlLox; Human Molecular Genetics, 2007, Vol. 16, No. 24, 3188-3196). A negative control group induced with tamoxifen (Vehicle) and a negative control group not induced with tamoxifen (No Tam) were included. A positive control group was dosed with everolimus. Mice were dosed orally on both PND 10, 11 with 25 mg/kg tamoxifen. Oral dosage of vehicle, compound 1206, and everolimus started from PND 14 onwards to PND 27. The readouts of this study were body weight, kidney weight, BUN levels and histopathology assessment including cyst index.
The fixated kidney half was processed for paraffin embedding and further pathological assessment after hematoxylin-eosin staining. One piece of each H-E stained kidney half was observed by a board certified pathologist, who read a cross section of the kidney. For each kidney one section was evaluated. From this section an overview photo was taken (2X) and used to calculate the cystic index. The cystic areas were identified by a color thresholding method using an image analysis system (Image software, public domain software, NIH, Bethesda, Md.). The threshold area was calculated within a defined ROI (region of interest) representing the total area analyzed. This area represents at least 70-80% of the entire kidney section. The cystic index (CI) is defined as the percentage of the area of cysts lumen (in pixels) over the total kidney area in the selected ROI (in pixels).

SMILES	activation at 50 µM [2] [%]	further results
COc1ncc(NC(=O)c2ncc(-c3ccccc3)o2)cc1S(=O)(=O)Nc1ccc(Cl)cc1 [compound 535, N-(5-(N-(4-chlorophenyl)sulfamoyl)-6-methoxypyridin-3-yl)-5-phenyloxazole-2-carboxamide]	–	EC50 [1]: 10 to 20 µM; Emax [1]: 160 to 199%
Cc1cccc(C)c1NS(=O)(=O)c1cncc(NC(=O)c2cnc(-c3ccccc3)[nH]2)c1 [compound 592, N-(5-(N-(2,6-dimethylphenyl)sulfamoyl)pyridin-3-yl)-2-phenyl-1H-imidazole-5-carboxamide]	–	EC50 [1]: 20 to 100 µM; Emax [1]: 160 to 199%
COc1ncc(NC(=O)c2ncc(-c3ccccc3)o2)cc1S(=O)(=O)Nc1ccc(C(F)(F)F)cc1 [compound 594, N-(6-methoxy-5-(N-(4-(trifluoromethyl)phenyl)sulfamoyl)pyridin-3-yl)-5-phenyloxazole-2-carboxamide]	–	EC50 [1]: 20 to 100 µM; Emax [1]: 119 to 159%
COc1ncc(NC(=O)c2cnc(-c3ccccc3)o2)cc1S(=O)(=O)Nc1ccc(C(F)(F)F)cc1 [compound 604, N-(6-methoxy-5-(N-(4-(trifluoromethyl)phenyl)sulfamoyl)pyridin-3-yl)-2-phenyloxazole-5-carboxamide]	–	EC50 [1]: 20 to 100 µM; Emax [1]: 160 to 199%
O=C(Nc1cccc(S(=O)(=O)Nc2ccc(Cl)cc2)n1)c1cnc(-c2ccccc2)[nH]1 [compound 612, N-(6-(N-(4-chlorophenyl)sulfamoyl)pyridin-2-yl)-2-phenyl-1H-imidazole-5-carboxamide]	–	EC50 [1]: 20 to 100 µM; Emax [1]: 200 to 300%
COc1ncc(NC(=O)c2ncc(-c3ccccc3)o2)cc1S(=O)(=O)Nc1c(Cl)cccc1Cl [compound 670, N-(5-(N-(2,6-dichlorophenyl)sulfamoyl)-6-methoxypyridin-3-yl)-5-phenyloxazole-2-carboxamide]	–	EC50 [1]: 20 to 100 µM; Emax [1]: 200 to 300%; EC50 ([2]; concentration for half maximal activation, read-out: ADP GLO DRC: GeoMean EC50): 20 to 100 µM; Emax ([2]; maximal percent activation, read-out: ADP GLO DRC: Mean Emax): 160 to 199%
COc1ncc(NC(=O)c2cccc(CO)c2)cc1S(=O)(=O)Nc1c(C)cccc1C [compound 2767]	181 to 352	–
COc1nc(C(F)(F)F)c(C(=O)Nc2cnc(OC)c(S(=O)(=O)Nc3c(C)cccc3C)c2)s1 [compound 2768]	181 to 352	–
CCCN1CCN(c2ccc(C(=O)Nc3cnc(OC)c(S(=O)(=O)Nc4c(C)cccc4C)c3)cc2)CC1 [compound 2769]	181 to 352	–
COc1ncc(NC(=O)c2ccc(CN3CCCCC3)cc2)cc1S(=O)(=O)Nc1c(C)cccc1C [compound 2770]	151 to 180	–
COc1ncc(NC(=O)c2cn3c(n2)CCCC3)cc1S(=O)(=O)Nc1c(C)cccc1C [compound 2771]	151 to 180	–
COc1ncc(NC(=O)c2nccn2C)cc1S(=O)(=O)Nc1c(C)cccc1C [compound 2772]	120 to 150	–
COc1ncc(NC(=O)c2ccc(N3CCN(C)CC3)cc2Cl)cc1S(=O)(=O)Nc1c(C)cccc1C [compound 2774]	181 to 352	–
COc1ncc(NC(=O)c2ccc(N3CCN(C)CC3)nc2)cc1S(=O)(=O)Nc1c(C)cccc1C [compound 2775]	181 to 352	–
COc1ncc(NC(=O)c2cnn(C)c2C)cc1S(=O)(=O)Nc1c(C)cccc1C [compound 2776]	120 to 150	–
COc1ncc(NC(=O)c2csnn2)cc1S(=O)(=O)Nc1c(C)cccc1C [compound 2777]	120 to 150	–

SMILES	activation at 50 µM [2] [%]	further results
COc1ncc(NC(=O)c2[nH]ncc2Cl)cc1S(=O)(=O)Nc1c(C)cccc1C [compound 2779]	151 to 180	–
COc1ncc(NC(=O)c2nnsc2C)cc1S(=O)(=O)Nc1c(C)cccc1C [compound 2780]	151 to 180	–
COc1ncc(NC(=O)c2ccno2)cc1S(=O)(=O)Nc1c(C)cccc1C [compound 2781]	120 to 150	–
COc1ncc(NC(=O)c2cccc(N3CCOCC3)c2C)cc1S(=O)(=O)Nc1c(C)cccc1C [compound 2782]	181 to 352	–
COc1ncc(NC(=O)c2cccc(NC(=O)N(C)C)c2)cc1S(=O)(=O)Nc1c(C)cccc1C [compound 2784]	181 to 352	–
COCc1c[nH]c(C(=O)Nc2cnc(OC)c(S(=O)(=O)Nc3c(C)cccc3C)c2)c1 [compound 2785]	120 to 150	–
CCc1cc(C(=O)Nc2cnc(OC)c(S(=O)(=O)Nc3c(C)cccc3C)c2)nn1C [compound 2786]	181 to 352	–
COc1ncc(NC(=O)c2ccc(C(C)(C)O)cc2)cc1S(=O)(=O)Nc1c(C)cccc1C [compound 2787]	151 to 180	–
COc1ncc(NC(=O)c2ccc(N(C)C)nc2)cc1S(=O)(=O)Nc1c(C)cccc1C [compound 2788]	181 to 352	–
COc1ncc(NC(=O)c2cnccc2N(C)C)cc1S(=O)(=O)Nc1c(C)cccc1C [compound 2789]	120 to 150	–
COc1nc2c(cc1C(=O)Nc1cnc(OC)c(S(=O)(=O)Nc3c(C)cccc3C)c1)CCC2 [compound 2790]	181 to 352	–
CCN1CCN(c2ccc(C(=O)Nc3cnc(OC)c(S(=O)(=O)Nc4c(C)cccc4C)c3)cc2)CC1 [compound 2791]	181 to 352	–
COc1ncc(NC(=O)c2cc3c(s2)CCC3)cc1S(=O)(=O)Nc1c(C)cccc1C [compound 2792]	120 to 150	–
COc1ncc(NC(=O)c2cnc3c(c2)OCCN3C)cc1S(=O)(=O)Nc1c(C)cccc1C [compound 2793]	181 to 352	–
CO[C@H]1C[C@@H]2CC[C@@H](C)[C@@](O)(O2)C(=O)C(=O)N2CCCC[C@H]2C(=O)O[C@H]([C@H](C)C[C@@H]2CC[C@@H](OCCO)[C@H](OC)C2)CC(=O)[C@H](C)/C=C(\C)[C@@H](O)[C@@H](OC)C(=O)[C@H](C)C[C@H](C)/C=C/C=C/C=C/1C [everolimus, reference compound]	–	2 KW/BW ratio (kidney weight/body weight) ([3]; compared to tamoxifen-induced vehicle control group): significantly lower; cystic index ([3]; compared with tamoxifen-induced vehicle control group): significantly lower
